Data taken from the NIST ThermoML archive (doi:10.1016/j.jct.2016.04.014).
± gives the expanded uncertainty stated by the source.

Experiment: xn = mol fraction of the nth substance listed
Settings: Liquid, Vibrating tube method

CCCCCCC [heptane] + CCO
mass density [kg/m3]
Settings	100 kPa	500 kPa	5000 kPa	10000 kPa	15000 kPa	20000 kPa	25000 kPa	30000 kPa	35000 kPa	40000 kPa
293.15 K, x1 = 0.2505	737.7 ± 1.7	738.1 ± 1.7	742.1 ± 1.7	746.4 ± 1.7	750.4 ± 1.7	754.3 ± 1.7	757.9 ± 1.7	761.4 ± 1.7	764.7 ± 1.8	768 ± 1.8
293.15 K, x1 = 0.5004	711 ± 1.8	711.3 ± 1.8	715.4 ± 1.7	719.8 ± 1.7	723.8 ± 1.7	727.7 ± 1.7	731.3 ± 1.7	734.8 ± 1.8	738.1 ± 1.8	741.4 ± 1.8
293.15 K, x1 = 0.7501	694.3 ± 1.7	694.6 ± 1.7	698.7 ± 1.7	703 ± 1.7	707.1 ± 1.7	710.9 ± 1.7	714.6 ± 1.8	718 ± 1.8	721.4 ± 1.8	724.6 ± 1.8
303.15 K, x1 = 0.2505	728.9 ± 1.7	729.3 ± 1.7	733.6 ± 1.7	738.2 ± 1.7	742.4 ± 1.7	746.5 ± 1.7	750.3 ± 1.7	754 ± 1.7	757.5 ± 1.8	760.8 ± 1.8
303.15 K, x1 = 0.5004	702.1 ± 1.7	702.5 ± 1.7	706.9 ± 1.7	711.5 ± 1.7	715.8 ± 1.7	719.9 ± 1.7	723.8 ± 1.7	727.4 ± 1.8	730.9 ± 1.8	734.3 ± 1.8
303.15 K, x1 = 0.7501	685.4 ± 1.7	685.8 ± 1.7	690.3 ± 1.7	694.9 ± 1.7	699.2 ± 1.7	703.3 ± 1.7	707.1 ± 1.8	710.8 ± 1.8	714.3 ± 1.8	717.6 ± 1.8
313.15 K, x1 = 0.2505	719.9 ± 1.7	720.3 ± 1.7	725 ± 1.7	729.8 ± 1.7	734.3 ± 1.7	738.6 ± 1.7	742.6 ± 1.7	746.5 ± 1.7	750.1 ± 1.8	753.7 ± 1.8
313.15 K, x1 = 0.5004	693 ± 1.7	693.4 ± 1.7	698.2 ± 1.7	703.1 ± 1.7	707.7 ± 1.7	712 ± 1.7	716.1 ± 1.8	720 ± 1.8	723.7 ± 1.8	727.2 ± 1.8
313.15 K, x1 = 0.7501	676.4 ± 1.7	676.9 ± 1.7	681.6 ± 1.7	686.6 ± 1.7	691.2 ± 1.7	695.5 ± 1.8	699.6 ± 1.8	703.4 ± 1.8	707.1 ± 1.8	710.6 ± 1.8
323.15 K, x1 = 0.2505	710.6 ± 1.7	711.1 ± 1.7	716.1 ± 1.7	721.2 ± 1.7	–	–	–	–	–	–
323.15 K, x1 = 0.5004	683.6 ± 1.7	684.1 ± 1.7	689.2 ± 1.7	694.5 ± 1.7	–	–	–	–	–	–
323.15 K, x1 = 0.7501	667.2 ± 1.7	667.6 ± 1.7	672.8 ± 1.7	678.1 ± 1.7	–	–	–	–	–	–
